# Patent US20140011755A1, “Cardiac Glycosides for Treating Autoimmune Disease” (Department of Veterans Affairs, priority 2010, published 2014)
# “Also recorded” adds a separate entry of the source. Read-outs that look alike come from different tables or passages of the source.
# What was measured:
# [1] = cited from earlier work; for Half-life: in vivo; for Onset (m): onset of action; for Peak: time to maximal effect
# [2] = CHCI3/16% aqueous methanol (MeOH); cited from earlier work
# TNF, IL-6 and IL-1beta = assay: Serum cytokine ELISA in CIA treatment groups; assay type: in vivo; conditions: serum from 3 mice per treatment group, ELISA in triplicate
# From the text: FIG. 9. Serum cytokine levels are similar between vehicle and cardiac glycoside treatment groups. […] The unpaired student t-test was used to assess significance.
# [3] = tested on: collagen-induced arthritis (CIA); assay type: in vivo, DBA1/J mice; conditions: for average clinical arthritis scores compared to vehicle, prevention study: first dose one day prior to boost, 0.3 mg/kg digitoxin, 0.03 mg/kg ouabain, […] proscillaridin, 0.35 mg/kg digoxin, […] bufalin, 15 mice per group
# T cell receptor = assay type: cell-based, mice
# Method: (§1) Activity was monitored by ^3H-thymidine incorporation as a read-out for proliferation. […] Cell type(s) in the splenocyte population responsive to therapeutic concentrations of cardiac glycoside were determined by identifying the population of cells that responded to a dose-dependent decrease in activity in the presence of stimulant, defined as ligand(s) binding to cognate receptor(s). Activity was analyzed by: ^3H-thymidine or BrdU incorporation to monitor proliferation or by ELISA to monitor cytokine production. Splenic T lymphocytes were isolated by negative selection (MACS, Miltinyi Biotec) and are stimulated with PMA, ConA or through the TCR with anti-CD3/anti-CD28 Dynabeads (Invitrogen) and collagen II (all non-TNFR receptors/pathways). […] Peritoneal and bone marrow-derived macrophages were isolated from CIA mice in the presence of M-CSF growth factor and were stimulated with TNF and CD40 ligand (CD40L). […] Splenic B lymphocytes were isolated by negative selection (MACS, Miltinyi Biotec) and were stimulated with BAFF (BLyS), CD40L or through the BCR with anti-IgM u-chain specific antibodies.
# [4] = tested on: TNF-mediated NFκB activity in HeLa cells; assay: NFκB luciferase reporter assay in TNF-stimulated HeLa cells; assay type: cell-based; conditions: pre-treatment 6 hours with 0-500 nM, 50 ng/mL TNF
# Method: FIG. 8. […] Values represent mean light units produced. Error bars represent SEM, and statistical significance was determined by unpaired T-test. Single and double asterisks represent P-values of 0.01 or 0.001, respectively. […] Samples were harvested at designated time points and were fractionated into nuclear and cytoplasmic lysates (Pierce). Lysates were quantified using BCA (Pierce), and were equally loaded according to total protein. Membranes were probed for levels of nuclear phospho-p65 (ReIA), phospho-ReIB, and histone (histone served as loading control and fractionation method control) and cytoplasmic degradation of IκBα (beta-tubulin served as loading control and fractionation method control).
# HeLa cells were co-transfected with the reporter pNFκB-luc and control vector pTAL (Renilla) for 18 h prior to incubation with 0-500 nM cardiac glycoside for 6 h. Cells are stimulated with 50 ng/mL TNF. […] FIG. 8 B).
# rheumatoid arthritis = conditions: cited from earlier work
# [5] = injectable versus other formulations; cited from earlier work
# [6] = tested on: collagen-induced arthritis (CIA) joints; assay type: in vivo, DBA1/J mice; conditions: cross-sectioned ankle joints, CIA prevention groups
# Method: FIG. 7. Cardiac glycosides reduce joint pathology in the CIA mouse model for rheumatoid arthritis. Blinded scoring was performed on histologic sections of joints harvested from mice at the end of a CIA prevention study (A-C). Joints derived from three representative mice belonging to each prevention group (A-C) were decalcified, fixed and stained with tolidine blue, followed by scoring by an examiner blinded to treatment status for the severity of synovitis (inflammation), pannus (growth of the synovial lining), and erosions of bone. (D-G) Joints derived from three representative mice belonging to each prevention group were decalcified, fixed, and stained with hematoxylin and eosin. Cross-sectioned ankle joints from vehicle (D), digitoxin (E), ouabain (F) and proscillaridin (G) treated mice are presented. Error bars represent SEM, and asterisks indicate P-values less than 0.05 by Mann-Whitney test.
# In treatment studies, mice were randomly enrolled in treatment groups and treatment commenced when the average clinical score was at or above 2. […] Daily dosing commenced upon enrollment at the abovementioned concentrations. […] Double-blinded histopathology scoring was conducted of cross-sectioned joints taken from cardiac glycoside and vehicle recipients. […] The results obtained from these animal studies indicate that cardiac glycosides are effective at reducing the clinical manifestations of disease and reducing joint pathology in mice with collagen arthritis.
# The effects of the different cardiac glycoside treatments on CIA pathology was analyzed by histological scoring. Inflammatory cell infiltrate, synovial hyperplasia, pannus formation and articular cartilage and bone deterioration were evaluated in sectioned paws of treated mice at specific time-points throughout the disease course. […] The ELISA was developed and read using BD ELISA development kit. […]
# [7] = tested on: anti-type II collagen antibodies; assay type: in vivo; conditions: sera of 6 mice per prevention group, ANOVA
# Method: FIG. 10. Cardiac glycosides reduce immunoglobulin levels in CIA mice. ELISAs for anti-type II collagen antibodies were performed on sera derived from 6 representative mice of each prevention group (A, B). Isotype specific antibodies for IgG1 and IgG2a (A) and IgM (B) were utilized. […] Statistical analysis was performed using ANOVA and asterisks indicate points at which the P-values were less than 0.001.
# The effects of the different cardiac glycoside treatments on CIA pathology was analyzed by histological scoring. Inflammatory cell infiltrate, synovial hyperplasia, pannus formation and articular cartilage and bone deterioration were evaluated in sectioned paws of treated mice at specific time-points throughout the disease course. Histopathology scores of inflammation, pannus formation and bone and cartilage erosions were conducted by a blinded investigator on toludine blue-stained cross sections of fixed leg joints from representative mice in vehicle and glycoside groups. Pathology scoring for each of the three categories are on a scale of 0-4 with grade 0=normal, 1=mild inflammation, hyperplasia of the synovial lining, cartilage destruction without bone erosion, grades 2 to 4=increasing degrees of inflammatory cell infiltrate, synovial hyperplasia, pannus formation and cartilage and bone destruction. Error bars represent SEM and statistics were performed using the Mann-Whitney test. At the endpoint, mice are bled and serum is collected from representative mice and stored at −80 C until use. To determine anti-collagen II antibody levels and to characterize isotype prevalence, bovine collagen II (Chondrex) was coated O/N at 4 C on an ELISA plate, washed and incubated with 100 uL of 1:10 dilution of each serum sample (in triplicate) for 2 h at RT. Wells were washed and incubated with anti-mouse IgM u-chain specific (Jackson), anti-mouse IgG1, or anti-mouse IgG2a (Southern Biotech) for 1 h at RT. The ELISA was developed and read using BD ELISA development kit. Statistical analysis was performed using the two-tailed ANOVA and asterisks represent P-values less than 0.01.
# TNFR = assay type: cell-based, mice; conditions: pre-treatment with 3.3 or 33 nM
# Method: as §1
# CD40 = target: T1, CD40 (Mus musculus, UniProt P27512); assay type: cell-based, mice; conditions: pre-treatment with 3.3 or 33 nM
# T1 construct: Peritoneal and bone marrow-derived macrophages were isolated from CIA mice; endogenous in cells; host or cells: peritoneal and bone marrow-derived macrophages from CIA mice
# T1 sequence (P27512 20-289): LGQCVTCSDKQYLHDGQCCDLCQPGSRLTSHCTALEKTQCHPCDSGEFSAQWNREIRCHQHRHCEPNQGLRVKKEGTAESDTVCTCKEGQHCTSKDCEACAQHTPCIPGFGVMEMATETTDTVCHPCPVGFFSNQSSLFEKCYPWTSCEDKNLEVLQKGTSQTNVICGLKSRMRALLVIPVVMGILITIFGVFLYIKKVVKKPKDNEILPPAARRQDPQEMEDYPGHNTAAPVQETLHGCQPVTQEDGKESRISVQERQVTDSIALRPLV
# Method: as §1
# [8] = Serum concentration obtained with experimental dosing regimen, mouse; assay type: in vivo; conditions: 0.2 mg/kg per diem, i.p., experimentally determined
# Method: Dosing regimens in humans vary according to the cardiac glycoside and constitution thereof. Table 3 depicts representative dosing regimens reported in the literature compared to experimental regiments used in mice that are representative of human dosing. Successful dosing detailed in this application includes but is not limited to 0.03-0.4 mg/kg., or from 0.001 to 5 mg/kg.
# MRL-Ipr splenic B cells = assay: ANA production by MRL-Ipr splenic B cells in vitro; assay type: cell-based, mice; conditions: B cells pre-treated with 0.8 nM mifepristone, digitoxin 33 nM
smiles,measurement,setting,value
C[C@H]1O[C@@H](O[C@H]2CC[C@@]3(C)[C@H](CC[C@@H]4[C@@H]3C[C@@H](O)[C@]3(C)[C@@H](C5=CC(=O)OC5)CC[C@]43O)C2)C[C@H](O)[C@@H]1O[C@H]1C[C@H](O)[C@H](O[C@H]2C[C@H](O)[C@H](O[C@@H]3O[C@H](CO)[C@@H](O)[C@H](O)[C@H]3O)[C@@H](C)O2)[C@@H](C)O1 [Deslanoside],Half-life,[1],33 h
same,Onset (m),[1],10-30 m
same,Peak,[1],1 to 2 h
"C[C@H]1O[C@@H](O[C@H]2[C@@H](O)C[C@H](O[C@H]3[C@@H](O)C[C@H](O[C@H]4CC[C@@]5(C)[C@H](CC[C@@H]6[C@@H]5C[C@@H](O)[C@]5(C)[C@@H](C7=CC(=O)OC7)CC[C@]65O)C4)O[C@@H]3C)O[C@@H]2C)C[C@H](O)[C@@H]1O [Digoxin, digoxin]",Partition Coefficient,[2],81.5
same,"Serum cytokine levels (TNF, IL-6 and IL-1beta) versus vehicle","TNF, IL-6 and IL-1beta",similar
same,"average clinical arthritis scores compared to vehicle, prevention study",[3],significantly reduced
same,Half-life,[1],36 h
same,proliferation of T cells in response to stimulation through the T cell receptor,T cell receptor,did not alter proliferation
same,TNF-mediated NFκB activation (luciferase light units),[4],reduced TNF-mediated NFκB activation in a dose-dependent fashion
CC(=O)O[C@H]1C[C@H](O[C@H]2[C@@H](O)C[C@H](O[C@H]3[C@@H](O)C[C@H](O[C@H]4CC[C@@]5(C)[C@H](CC[C@@H]6[C@@H]5C[C@@H](O)[C@]5(C)[C@@H](C7=CC(=O)OC7)CC[C@]65O)C4)O[C@@H]3C)O[C@@H]2C)O[C@H](C)[C@H]1O[C@@H]1O[C@H](CO)[C@@H](O)[C@H](O)[C@H]1O [Lanatoside C],Partition Coefficient,[2],16.2
CN(Cc1cnc2nc(N)nc(N)c2n1)c1ccc(C(=O)N[C@@H](CCC(=O)O)C(=O)O)cc1 [Methotrexate],patients having some response,rheumatoid arthritis,70%
same,onset of action,rheumatoid arthritis; rheumatoid arthritis patients,4-6 weeks
"C[C@@H]1O[C@@H](O[C@H]2C[C@@H](O)[C@]3(CO)[C@H]4[C@H](O)C[C@]5(C)[C@@H](C6=CC(=O)OC6)CC[C@]5(O)[C@@H]4CC[C@]3(O)C2)[C@H](O)[C@H](O)[C@H]1O [Ouabain, ouabain]",Partition Coefficient,[2],very low
same,bioavailability by formulation,[5],higher bioavailability with injectable formulations
same,"Serum cytokine levels (TNF, IL-6 and IL-1beta) versus vehicle","TNF, IL-6 and IL-1beta",similar
same,immune cell infiltrate into the joints (hematoxylin and eosin),[6],decreased amounts of immune cell infiltrate
same,"disease and inflammation (clinical score, paw thickness), dosing every three days i.p.","[3]; 0.9 mg/kg digitoxin or 0.6 mg/kg ouabain, i.p., days −3, 0, 3, 6, 9, 12 after boost",significantly less disease and inflammation
same,"onset of collagen arthritis, dosing every three days sublingual","[3]; 0.9 mg/kg digitoxin or 0.6 mg/kg ouabain, sublingual, days −3, 0, 3, 6, 9, 12 after boost",significantly inhibited the onset of collagen arthritis; also recorded: effective in preventing
same,"development of CIA (Mean Visual Arthritis Score, Mean Paw Thickness), prevention study","[3]; daily i.p. from the day prior to induction, digitoxin 0.3 mg/kg, ouabain 0.03 mg/kg, proscillaridin […]",prevented the development of CIA
same,"average clinical arthritis scores compared to vehicle, prevention study",[3],significantly reduced
same,prevention and treatment of collagen-induced arthritis (CIA),"[3]; murine model for rheumatoid arthritis, summary statement",potently prevent and treat
same,Half-life,[1],21 h
same,Onset (m),[1],5-10 m
same,Peak,[1],0.5 to 2 h
same,anti-type II collagen IgG1 level relative to vehicle,[7],reduced levels
same,anti-type II collagen IgM level relative to vehicle,[7],reduced levels
same,TNF-mediated activation of macrophage through TNFR,TNFR,inhibits
same,CD40L-mediated activation of macrophage through CD40,CD40,inhibits
same,proliferation of T cells in response to stimulation through the T cell receptor,"T cell receptor; non-TNFR family member, therapeutic concentrations",did not alter proliferation
same,TNF-mediated NFκB activation (luciferase light units),[4],reduced TNF-mediated NFκB activation in a dose-dependent fashion
same,Serum conc.,[8],16 ng/mL
C[C@]12CC[C@H](O)C[C@H]1CC[C@@H]1[C@@H]2CC[C@]2(C)[C@@H](c3ccc(=O)oc3)CC[C@]12O [bufalin],"Serum cytokine levels (TNF, IL-6 and IL-1beta) versus vehicle","TNF, IL-6 and IL-1beta",similar
same,"average clinical arthritis scores compared to vehicle, prevention study",[3],significantly reduced
same,TNF-mediated NFκB activation (luciferase light units),[4],reduced TNF-mediated NFκB activation in a dose-dependent fashion
CC#C[C@]1(O)CC[C@H]2[C@@H]3CCC4=CC(=O)CCC4=C3[C@@H](c3ccc(N(C)C)cc3)C[C@@]21C [mifepristone],effect of pre-treatment on digitoxin-specific blockade of autoantibody production,MRL-Ipr splenic B cells,relieved
